From PubChem BioAssay AID198 (DTP/NCI, 2004)
Inconclusive results and toxic doses are left out. Rule for the calls: active = survival T/C of 150% or more; inactive = T/C below 125% in these data.

Test system: B16 melanoma ip, C57BL/6 mice, median survival T/C
Experiment: NCI In Vivo Anticancer Drug Screen. Data for tumor model B16 Melanoma (intraperitoneal) in C57BL/6 mice
Conditions: endpoint: median survival time, schedule: Q01DX009 (ip), vehicle: saline, higher = longer survival
Description: The antitumor activity of compounds was measured in mice bearing transplantable tumors. Survival or tumor size were measured and the results are expressed as the measurement made in the treated group (T) divided by the measurement made in the vehicle treated control group (C). The tumor model used in this assay is B16 Melanoma (intraperitoneal) in C57BL/6 mice

Measured: T/C

COc1cc([C@@H]2c3cc4c(cc3[C@H](O)[C@H]3COC(=O)[C@H]23)OCO4)cc(OC)c1OC
inactive: dose: 2.0 mg/kg/injection 106 % of control | dose: 4.0 mg/kg/injection 120 % of control | dose: 8.0 mg/kg/injection 113 % of control | dose: 16.0 mg/kg/injection 96 % of control
